One data set concerns rats. Put plainly: 4-week repeated oral dose toxicity study in rats. It counts as in vivo. Conditions: rats; study details of the similar compound not given.
For data set [1], the system named is cynomolgus monkey model of saphenous arterial thrombus. Put plainly: Cynomolgus monkey model of saphenous arterial thrombus (PIT model). It counts as in vivo. As to conditions: oral administration to monkeys. The method, then: The thrombus formation inhibitory effect of the present compound was evaluated using a cynomolgus monkey model of saphenous arterial thrombus (PIT model) .
Before the procedure, the present compound suspended in a 0.5% CMC-Na aqueous solution was orally administered to test groups of cynomolgus monkeys at dosages of 0.1, 0.3, 1, and 3 mg/kg. […] A light irradiation probe was placed on a saphenous artery of each cynomolgus monkey to cause thrombus formation by applying green light of 540 nm for 20 minutes at the time of intravenously administering rose bengal (20 mg/kg). A decrease in blood flow due to this thrombus formation was measured with a pulse Doppler blood flowmeter, and the thrombus formation inhibitory effect of the present compound was evaluated by measuring the occlusion time on the first day and the cumulative occlusion time.

The next data set concerns CML patients. Conditions: according to the NCCN guidelines; cited from earlier work.
The test system of data set [2] is mouse model of bleomycin-induced pulmonary fibrosis. In words: Mouse model of bleomycin-induced pulmonary fibrosis. The data set is classed as in vivo. The method, then: The improvement effect of the present compound on pulmonary fibrosis (remodeling after lung damage) was evaluated using a mouse model of bleomycin-induced pulmonary fibrosis. […] Because of similarity of histopathological changes to pulmonary fibrosis in humans, this mouse model is widely used for the evaluation of the drug efficacy.
To a fibrosis mouse model (fibrosis model group) given a single dose of bleomycin (1.2 mg/mL), the present compound (0.75 mg/kg/day) was orally administered for 21 days (present compound administration group, n = 9), and biochemical analysis of the lungs and measurement of clinical conditions of the lungs were performed on day 22. For comparison, instead of the present compound, the solvent used to dissolve the present compound was administered to a fibrosis model group in the same manner (vehicle group, n = 10), and biochemical analysis and measurement of clinical conditions of the lungs were performed. As a positive control group, a dexamethasone administration group (0.25 mg/kg administration, n = 9) was used. The biochemical analysis was performed using lung hydroxyproline values as an index. The clinical conditions of the lungs were evaluated by performing Masson’s trichrome staining and calculating Ashcroft scores according to a report of Ashcroft et al. (Ashcroft T et al., J Clin Pathol, 1988; 41:467). The clinical conditions were confirmed by comparing a normal mouse group (normal group, n = 10) with the vehicle group (n = 10), and the improvement effect of the present compound on pulmonary fibrosis was evaluated by comparing the vehicle group (n = 10) with the present compound administration group (n = 9). Differences between the mean values of the groups were tested by the Bonferroni selected pairs test using Prism 4 (GraphPad Software).
Table 1 and FIG. 3(A) and FIG. 3(B) show the results of comparisons of the lung hydroxyproline values and the Ashcroft scores in the groups. The mean values of the groups are expressed as mean±SD, and examination was performed at a 5% significance level.

Data set [3] concerns COVID-19 patients with moderate to severe lung damage. As to conditions: 13 COVID-19 patients, inhaled; cited from earlier work.
[4] abbreviates: day 22, present compound 0.75 mg/kg/day oral 21 days, dexamethasone 0.25 mg/kg, mean±SD.

Turning to `O=C(Nc1ccc(Cl)cc1C(=O)O)c1cccc(-c2ccccc2)c1` [similar compound, 2-([biphenyl-3-ylcarbonyl]amino)-5-chlorobenzoic acid, reference compound], the no-observed-adverse-effect level in the data set with rats came to 20 mg/kg/day. Further, the minimum effective dosage in data set [1] is recorded as 0.3 mg/kg.

As for `Cc1ccc(NC(=O)c2ccc(CN3CCN(C)CC3)cc2)cc1Nc1nccc(-c2cccnc2)n1` [imatinib], in the data set with CML patients, the “patients who could maintain DMR for more than 2 years after 3 years of treatment” value was “about 5 % of all CML cases”. `C[C@@H]1C[C@H]2[C@@H]3CCC4=CC(=O)C=C[C@]4(C)[C@@]3(F)[C@@H](O)C[C@]2(C)[C@@]1(O)C(=O)CO` [Dexamethazone, dexamethasone, reference compound]: in data set [2] (5% significance level), the “Ashcroft score compared with vehicle group” value was “significantly lower” and the “lung hydroxyproline value compared with vehicle group” value is “no significant difference”. In data set [2] (setting [4]), the Ashcroft score was 2.3±0.1 and the Lung hydroxyproline value is given as 71.0±6.7 µg/left lung.

B1: plasminogen: inhaled plasminogen given to COVID-19 patients in the clinical study by Wu et al. (protein, UniProt P00747 20-810, looked up)
Plasminogen: EPLDDYVNTQGASLFSVTKKQLGAGSIEECAAKCEEDEEFTCRAFQYHSKEQQCVIMAENRKSSIIIRMRDVVLFEKKVYLSECKTGNGKNYRGTMSKTKNGITCQKWSSTSPHRPRFSPATHPSEGLEENYCRNPDNDPQGPWCYTTDPEKRYDYCDILECEEECMHCSGENYDGKISKTMSGLECQAWDSQSPHAHGYIPSKFPNKNLKKNYCRNPDRELRPWCFTTDPNKRWELCDIPRCTTPPPSSGPTYQCLKGTGENYRGNVAVTVSGHTCQHWSAQTPHTHNRTPENFPCKNLDENYCRNPDGKRAPWCHTTNSQVRWEYCKIPSCDSSPVSTEQLAPTAPPELTPVVQDCYHGDGQSYRGTSSTTTTGKKCQSWSSMTPHRHQKTPENYPNAGLTMNYCRNPDADKGPWCFTTDPSVRWEYCNLKKCSGTEASVVAPPPVVLLPDVETPSEEDCMFGNGKGYRGKRATTVTGTPCQDWAAQEPHRHSIFTPETNPRAGLEKNYCRNPDGDVGGPWCYTTNPRKLYDYCDVPQCAAPSFDCGKPQVEPKKCPGRVVGGCVAHPHSWPWQVSLRTRFGMHFCGGTLISPEWVLTAAHCLEKSPRPSSYKVILGAHQEVNLEPHVQEIEVSRLFLEPTRKDIALLKLSSPAVITDKVIPACLPSPNYVVADRTECFITGWGETQGTFGAGLLKEAQLPVIENKVCNRYEFLNGRVQSTELCAGHLAGGTDSCQGDSGGPLVCFEKDKYILQGVTSWGLGCARPNKPGVYVRVSRFVTWIEGVMRNN
For the molecule B1, the lung damage result in data set [3] is “rapid improvement in lung damage”.

B2: plasmin: as printed for NPL 27; probably the inhaled plasminogen of b10 (protein, UniProt P00747 20-810, looked up)
Plasminogen: EPLDDYVNTQGASLFSVTKKQLGAGSIEECAAKCEEDEEFTCRAFQYHSKEQQCVIMAENRKSSIIIRMRDVVLFEKKVYLSECKTGNGKNYRGTMSKTKNGITCQKWSSTSPHRPRFSPATHPSEGLEENYCRNPDNDPQGPWCYTTDPEKRYDYCDILECEEECMHCSGENYDGKISKTMSGLECQAWDSQSPHAHGYIPSKFPNKNLKKNYCRNPDRELRPWCFTTDPNKRWELCDIPRCTTPPPSSGPTYQCLKGTGENYRGNVAVTVSGHTCQHWSAQTPHTHNRTPENFPCKNLDENYCRNPDGKRAPWCHTTNSQVRWEYCKIPSCDSSPVSTEQLAPTAPPELTPVVQDCYHGDGQSYRGTSSTTTTGKKCQSWSSMTPHRHQKTPENYPNAGLTMNYCRNPDADKGPWCFTTDPSVRWEYCNLKKCSGTEASVVAPPPVVLLPDVETPSEEDCMFGNGKGYRGKRATTVTGTPCQDWAAQEPHRHSIFTPETNPRAGLEKNYCRNPDGDVGGPWCYTTNPRKLYDYCDVPQCAAPSFDCGKPQVEPKKCPGRVVGGCVAHPHSWPWQVSLRTRFGMHFCGGTLISPEWVLTAAHCLEKSPRPSSYKVILGAHQEVNLEPHVQEIEVSRLFLEPTRKDIALLKLSSPAVITDKVIPACLPSPNYVVADRTECFITGWGETQGTFGAGLLKEAQLPVIENKVCNRYEFLNGRVQSTELCAGHLAGGTDSCQGDSGGPLVCFEKDKYILQGVTSWGLGCARPNKPGVYVRVSRFVTWIEGVMRNN
For B2, in data set [3], the lung damage entry is listed as “improved”.

Source of the values: US20230355605A1, “DRUG FOR ENHANCING FIBRINOLYTIC SYSTEM, AND USE THEREFOR” (priority 2020, published 2023).
